{"source": "patent US20260151347A1", "about": "“CELL-DERIVED MICROPARTICLE DELIVERY SYSTEM AND USES THEREOF” (priority 2021, published 2026)", "tested_on": "4T1-luc2 cells", "test": "In vitro validation of released drug efficacy", "type": "cell-based", "settings": "after 4 hours, free drug dose equals cumulative cisplatin release at 4 hours", "from_the_text": "Additional controls include unloaded MPs and untreated cells. […] As shown in these experiments, the local release of high levels of payload may result in a stark increase in efficiency for the treatment of diseased cells."}
{"compound": "N.N.[Cl][Pt][Cl]", "note": "[Cisplatin]", "values": [{"measurement": "cell death as compared to control", "value": "little to no cell death"}]}
